Results published in PMC4741576 (Oncotarget, 2015).

Assays:
surface CXCR4 [1] = conditions: leukemic blasts; cited from earlier work
CXCR7 = conditions: ALL; cited from earlier work
Source text: (§1) CXCR7 is a second receptor for SDF-1α, [24, 25] while VLA-4 is an integrin, [26] and both are important in the interaction of leukemia cells with the bone marrow stromal microenvironment.

surface CXCR4 [2] = conditions: leukemic blasts; cited from earlier work; remark: listed apart in the source
surface CXCR4 [3] = target: T1, surface CXCR4 (Homo sapiens, UniProt P61073); assay: 12G5 anti-CXCR4 antibody binding (FACS), ALL cell lines
T1 construct: endogenous in cells; host or cells: pediatric ALL cell lines (pre-B: Nalm-6, HB-1119 and others; T cell: Jurkat, CCRF-CEM-1301 and others)
T1 sequence (P61073 whole entry): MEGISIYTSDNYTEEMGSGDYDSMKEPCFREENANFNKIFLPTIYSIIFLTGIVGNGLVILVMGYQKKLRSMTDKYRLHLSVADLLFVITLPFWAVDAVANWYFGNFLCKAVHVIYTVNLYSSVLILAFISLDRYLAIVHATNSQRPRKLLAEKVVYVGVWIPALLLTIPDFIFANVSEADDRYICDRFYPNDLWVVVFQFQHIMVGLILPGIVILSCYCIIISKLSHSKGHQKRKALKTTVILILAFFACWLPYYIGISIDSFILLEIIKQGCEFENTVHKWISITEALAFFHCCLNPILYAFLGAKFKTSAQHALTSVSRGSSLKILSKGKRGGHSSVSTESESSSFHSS
Method: We then harvested cells and measured binding of the 12G5 anti-CXCR4 antibody, which attaches to the SDF-1α binding site of CXCR4, by FACS as a marker for surface CXCR4 expression.
12G5 anti-CXCR4 antibody binding was measured by FACS and MFI were normalized to control at each time point.
Conversely, 1D9 antibody binding is a measure of total surface CXCR4. […] At multiple time points, we measured binding to surface CXCR4 by flow cytometry using 3 anti-CXCR4 antibodies: 12G5, 1D9, and 2B11.
Cells were harvested at multiple time points, washed with ice-cold wash buffer (PBS with 0.5% bovine serum albumin, Sigma-Aldrich), stained with antibodies at manufacturer-recommended concentrations (12G5 anti-human CD184 [CXCR4]-APC, eBioscience, San Diego, CA; 12G5 anti-human CD184-PE-Cy5, BD Pharmingen, San Diego, CA; 1D9 anti-human CD184-PE, BD Pharmingen; 2B11 anti-mouse CD184-APC, eBioscience; anti-human CXCR7- PerCP, R&D Systems, Minneapolis, MN), washed, fixed with 1% paraformaldehyde (VWR, Radnor, PA), and stored at 4°C in the dark until analysis on a FACSCalibur (BD Biosciences, San Jose, CA). A live gate was drawn using FlowJo (TreeStar, Ashland, OR) according to forward/side scatter properties and used to calculate the MFI. MFI were normalized to the isotype control (IC) MFI at each time point and then normalized to the MFI:IC ratio of control-treated (0 nM) samples.

[4] = tested on: pediatric ALL and acute myeloid leukemia (AML); conditions: cited from earlier work
Source text: ALL is the most common pediatric malignancy. […] However, children and young adults with high-risk and relapsed/refractory ALL continue to have suboptimal outcomes. […] Specifically, interaction between the cell surface receptor CXCR4 ...

acute leukemias [5] = conditions: several preclinical studies; cited from earlier work
Source text: Efforts to improve outcomes in pediatric ALL have largely been focused on factors intrinsic to the leukemic blast, such as genetic mutations or alterations in gene expression. However, it is likely that survival signals from the bone marrow microenvironment also contribute to treatment failure and relapse. As such, many groups have studied CXCR4 antagonism as a means to improve outcomes in acute leukemias. […] Our paper is ...

acute leukemias [6] = conditions: cited from earlier work
Source text: CXCR4 antagonism has been advanced clinically in acute leukemia. Trials of plerixafor as a chemosensitizing agent have been completed in adults with relapsed/refractory and newly-diagnosed AML, [33] and children with relapsed/refractory acute leukemias. One concern about CXCR4 antagonism is that mobilized hematopoietic stem cells will become more susceptible to chemotherapy and lead to delayed blood count recovery. […] With regards to ...

CD49d = CD49d surface expression in leukemic blasts from xenografted mice; type: in vivo, human; conditions: bone marrow, spleen and peripheral blood blasts, compared to control; differences not statistically significant
Source text: (§2) Leukemic blasts (1 × 10^6 per mouse) were then secondarily transplanted into sublethally irradiated NSG mice for treatment experiments. […] After sacrifice, cells were isolated from bone marrow, spleen, and peripheral blood; counted; and stained with anti-human FACS antibodies (CD19- FITC, CD45-PE/APC, 12G5 CXCR4-APC, 1D9 CXCR4-PE, CXCR7-PerCP, and/or CD49d-PE-Cy5).

CXCR4 = conditions: vs. control
Source text: as §2

[7] = tested on: infant MLL-R ALL primary samples; assay: xenograft of infant MLL-R ALL, leukemic burden; type: in vivo, human blasts in NSG mice
Source text: Therefore, we transplanted primary samples from infants with MLL-R ALL. […] To make our xenograft model even more aggressive, we transplanted cells that had already been passaged once through NOD/SCID/γc^null (NSG) mice in order to select for leukemia-initiating cells from the cryopreserved primary samples. We performed this experiment using 4 different infant MLL-R ALL primary samples (Figure 6A).
Mice were sacrificed at the start of week 4, or 4 days after the last treatment. […] Overall leukemic burden was quantified by averaging the percentage of blasts (human CD45+ and CD19+) detected in the bone marrow, spleen, and peripheral blood. Quantification of leukemic blasts was performed in duplicate.
Cryopreserved primary ALL cells were thawed, counted (TC10 Automated Cell Counter, BioRad, Hercules, CA), and resuspended in cold PBS. Adult NSG mice (Jackson Laboratories, Bar Harbor, ME) were sublethally irradiated (200 centiGray) 4 hours prior to the transplantation of 1 × 10^6 viable cells via tail vein injection. Mice were started on Uniprim medicated feed (Harlan Laboratories, Frederick, MD) ≥ 24 hours prior to transplantation in order to decrease opportunistic infections. Peripheral blood was collected via cheek venipuncture 4 to 6 weeks post-transplant and analyzed by FACS after staining with anti-human CD19-FITC and anti-human CD45-PE (BD Pharmingen). Leukemic blasts were defined as cells that co-expressed human CD45 and human CD19. Mice were sacrificed 2 to 4 weeks post-engraftment and leukemic cells were harvested from the spleen and bone marrow.
as §2

[8] = overall health of xenografted mice; conditions: 3 consecutive days for 2 weeks; POL5551 5 mg/kg s.c., cytarabine 200 mg/kg i.p.
Source text: CXCR4 antagonism has been advanced clinically in acute leukemia. Trials of plerixafor as a chemosensitizing agent have been completed in adults with relapsed/refractory and newly-diagnosed AML, [33] and children with relapsed/refractory acute leukemias. One concern about CXCR4 antagonism is that mobilized hematopoietic stem cells will become more susceptible to chemotherapy and lead to delayed blood count recovery.
as §2

ERK1/2 = assay: SDF-1α-induced phosphorylation of ERK1/2 (PhosphoFACS); type: cell-based, human; conditions: control-treated cells, SDF-1α 75 ng/mL for 15 minutes
Source text: as §1

c1cc(CN2CCCNCCNCCCNCC2)ccc1CN1CCCNCCNCCCNCC1 [plerixafor]
1D9 antibody binding to surface CXCR4 (surface CXCR4 [1]): increase in 1D9 antibody binding | surface expression of CXCR7 (CXCR7): increase in surface expression of CXCR7 | 12G5 antibody binding to surface CXCR4 (surface CXCR4 [2]): decrease in 12G5 antibody binding | 12G5 antibody binding, potency relative to POL5551 / plerixafor (surface CXCR4 [3]; ALL cell lines, 48-hour time course): several-fold higher concentrations of plerixafor were needed to achieve similar levels of reduction of 12G5 antibody binding | inhibition at 0.04 µM (surface CXCR4 [3]; NALM-6, read-out: maximum inhibition of 12G5 antibody binding): ~20% | stromal protection and chemotherapy resistance [4]: could reverse stromal protection and chemotherapy resistance | in vivo sensitivity to anti-leukemic therapies (acute leukemias [5]): enhances in vivo sensitivity to anti-leukemic therapies | prolonged count recovery (acute leukemias [6]; phase 1/2 trials of plerixafor): none of them reported prolonged count recovery | tolerability and efficacy as a chemosensitizing agent (acute leukemias [6]; phase 1/2 trials, adults with AML, children with relapsed/refractory acute leukemias): showed tolerability and efficacy of plerixafor as a chemosensitizing agent | development of extramedullary disease after treatment (acute leukemias [6]; plerixafor trials): none of the aforementioned trials reported the development of extramedullary disease after treatment

Nc1ccn([C@@H]2O[C@H](CO)[C@@H](O)[C@@H]2O)c(=O)n1 [cytarabine]
CD49d mean fluorescence index (MFI) (CD49d): increased | 12G5 antibody binding in blasts from bone marrow and peripheral blood (CXCR4): moderate but non-significant decrease in 12G5 antibody binding | overall leukemic burden compared to vehicle control ([7]; 3 consecutive days for 2 weeks, vs. vehicle control): significantly decreased total leukemic burden compared to vehicle control | overall leukemic burden ([7]; average of bone marrow, spleen, peripheral blood, 4 primary samples pooled, n = 5 mice/cohort, POL5551 5 mg/kg s.c., cytarabine 200 mg/kg i.p., 3 consecutive days for 2 weeks, vehicle control 56.2%): 36.7% | leukemic burden in bone marrow compared to vehicle control ([7]; bone marrow, cytarabine 200 mg/kg i.p., vs. vehicle control): did not lead to a significant decrease in leukemic burden compared to vehicle control | leukemic burden, bone marrow ([7]; bone marrow, POL5551 5 mg/kg s.c., cytarabine 200 mg/kg i.p., 3 consecutive days for 2 weeks): 49.5% | leukemic burden, blood ([7]; peripheral blood, POL5551 5 mg/kg s.c., cytarabine 200 mg/kg i.p., 3 consecutive days for 2 weeks): 29.6% | leukemic burden, spleen ([7]; spleen, POL5551 5 mg/kg s.c., cytarabine 200 mg/kg i.p., 3 consecutive days for 2 weeks): 30.8% | appearance of mice at sacrifice [8]: thin and hunched at sacrifice

SDF-1α
ERK1/2 phosphorylation, effect of SDF-1α (ERK1/2): increase in phosphorylation of ERK1/2
